Test results from US20030224469A1, “Methods and kits for assays utilizing fluorescence polarization” (priority 2002, published 2003).
Where two headings read alike, the source gives them in different places.

How the values were obtained:
[1] = molecular target: glucocorticoid receptor (GR) (Homo sapiens, UniProt P04150)
Protocol: A non-labeled steroid (dexamethasone) was serially diluted in 10 mM potassium phosphate pH 7.4,20 mM Na2MoO4, 2% DMSO, 0.1 mM EDTA, 0.5 mM DTT buffer containing 0.1 mM stabilizing peptide. This steroid was used as a competitive binder to glucocorticoid receptor (GR). […] Control wells were also prepared without either unconjugated fluorescein or TMR present. As in Examples 1 and 2, two separate fluorescence polarization values were obtained for each sample using a green filter or a red filter.

[2] = molecular target: T1, T-Cell Protein Tyrosine Phosphatase (TC PTP) (Homo sapiens, UniProt P17706); test: FP-based protein tyrosine phosphatase assay (dual color); assay type: biochemical
T1 construct: purchased New England Biolabs
T1 sequence (P17706 1-317 limits assumed): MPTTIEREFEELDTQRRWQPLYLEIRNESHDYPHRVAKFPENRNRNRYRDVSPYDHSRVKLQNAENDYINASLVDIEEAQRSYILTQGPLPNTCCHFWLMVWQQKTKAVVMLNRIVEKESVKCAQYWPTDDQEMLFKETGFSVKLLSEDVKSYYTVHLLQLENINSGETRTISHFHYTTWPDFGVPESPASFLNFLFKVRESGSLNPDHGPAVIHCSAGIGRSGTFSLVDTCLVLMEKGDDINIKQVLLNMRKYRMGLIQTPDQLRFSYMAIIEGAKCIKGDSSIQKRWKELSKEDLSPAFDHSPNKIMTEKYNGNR
Protocol: The enzymatic activity of T-Cell Protein Tyrosine Phosphatase (TC PTP) was measured in a dose-dependent manner by incubating different concentrations of TC PTP (New England Biolabs; Beverly, Mass.), from 0.05 U/μL to 0.0005 U/μL, with 50 μL of a mixture of an anti-phosphotyrosine antibody, a fluorescein-labeled phosphopeptide and a tetramethylrhodamine-labeled phosphopeptides. The final reaction volume was […]. Two control assays were performed. […] Fluorescence polarization measurements were performed using the appropriate excitation and emission filters appropriate for each fluorophore. Increasing concentrations of TC PTP result in an increased rate of dephosphorylation of the labeled phosphopeptides, which is indicated by a decrease in polarization (due to the inability of the dephosphorylated peptide to bind to the antibody).
In a black, 96-well plate (DYNEX; Chantilly, Va.), Na3VO4 (Sigma; St. Louis, Mo.) was serially diluted 2-fold into 24 wells from a starting concentration of 500 nM in a volume of 50 μL. TC PTP was then added to each well so that the final concentration of the enzyme would be 0.005 U/μL per assay. […] At the end of the incubation, 10 μL of 550 μM Na3VO4 was added to quench all of the reactions, and the polarization for each sample was measured on a TECAN Polarion using the appropriate excitation and emission filters appropriate for each fluorophore. […]

Chain of glucocorticoid receptor (GR) (P04150 whole entry, species assumed): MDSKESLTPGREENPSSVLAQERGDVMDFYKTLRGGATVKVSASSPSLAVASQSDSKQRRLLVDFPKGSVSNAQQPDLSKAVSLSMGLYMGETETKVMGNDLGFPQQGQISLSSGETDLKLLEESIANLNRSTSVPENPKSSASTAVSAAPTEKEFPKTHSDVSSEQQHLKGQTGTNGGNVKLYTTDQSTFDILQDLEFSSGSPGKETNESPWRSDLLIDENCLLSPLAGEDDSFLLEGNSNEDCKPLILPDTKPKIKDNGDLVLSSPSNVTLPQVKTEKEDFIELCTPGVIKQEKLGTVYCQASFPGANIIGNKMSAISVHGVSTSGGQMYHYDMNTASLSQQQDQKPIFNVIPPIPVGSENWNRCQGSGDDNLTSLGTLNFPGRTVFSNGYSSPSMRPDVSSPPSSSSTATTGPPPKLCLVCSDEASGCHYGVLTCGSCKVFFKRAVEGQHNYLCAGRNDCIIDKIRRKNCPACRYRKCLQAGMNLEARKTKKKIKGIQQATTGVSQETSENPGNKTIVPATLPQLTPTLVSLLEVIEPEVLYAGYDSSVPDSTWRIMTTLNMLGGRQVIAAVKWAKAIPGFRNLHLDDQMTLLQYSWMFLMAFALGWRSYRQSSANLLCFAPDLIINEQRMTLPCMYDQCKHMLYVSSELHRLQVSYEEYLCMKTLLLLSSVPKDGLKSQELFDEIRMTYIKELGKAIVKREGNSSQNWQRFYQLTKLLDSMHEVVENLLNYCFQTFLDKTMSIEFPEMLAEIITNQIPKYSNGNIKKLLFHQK

Row | Molecule | fluorescence polarization ([1]; high concentrations of steroid competitor) | fluorescence polarization ([1]; low concentration of competitor) [mP] | inhibition of TC PTP-dependent change in polarization ([2]; 50 μM Na3VO4) | IC50 ([2]; TC PTP 0.005 U/μL, 15 minutes incubation, nonlinear regression of semi-log plot) [nM]
1 | dexamethasone [steroid competitor] | about 60 mP | ~260 | – | –
2 | [Na+].[Na+].[Na+].[O]=[V]([O-])([O-])[O-] [Na3VO4] | – | – | completely inhibited | 4
